Results: patent US20200392158A1, “INHIBITORS OF LEUCINE RICH REPEAT KINASE 2” (GLAXOSMITHKLINE INTELLECTUAL PROPERTY DEVELOPMENT LIMITED, priority 2017, published 2020)

Molecular target: T1, full length G2019 human LRRK2 (Homo sapiens, UniProt Q5S007, R50H)
T1 construct: made in house; host or cells: HEK293 6E cells transduced with BacMam virus (virus generated in Sf9 cells)
Experiment: Full length G2019 human LRRK2 inhibition mass spectrometry assay
Format: biochemical
Conditions: LRRKtide to phospho-LRRKtide conversion, RapidFire MS, 2 mM ATP
Procedure, shortened: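 Inhibition taken as reduced LRRKtide phosphorylation, quantified by RapidFire-coupled triple-quadrupole MS as product/(product+substrate) peak area. Reaction: 2 mM ATP, 25 μM peptide, ~25 nM full-length G2019 Flag-LRRK2, Hepes pH 7.2 buffer, room temperature for 1 h. 11-point 1-in-4 dilutions from 100 μM; logistic fit gives IC50, reported as pIC50.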

T1 sequence (Q5S007 with tags, fused parts or gaps R50H): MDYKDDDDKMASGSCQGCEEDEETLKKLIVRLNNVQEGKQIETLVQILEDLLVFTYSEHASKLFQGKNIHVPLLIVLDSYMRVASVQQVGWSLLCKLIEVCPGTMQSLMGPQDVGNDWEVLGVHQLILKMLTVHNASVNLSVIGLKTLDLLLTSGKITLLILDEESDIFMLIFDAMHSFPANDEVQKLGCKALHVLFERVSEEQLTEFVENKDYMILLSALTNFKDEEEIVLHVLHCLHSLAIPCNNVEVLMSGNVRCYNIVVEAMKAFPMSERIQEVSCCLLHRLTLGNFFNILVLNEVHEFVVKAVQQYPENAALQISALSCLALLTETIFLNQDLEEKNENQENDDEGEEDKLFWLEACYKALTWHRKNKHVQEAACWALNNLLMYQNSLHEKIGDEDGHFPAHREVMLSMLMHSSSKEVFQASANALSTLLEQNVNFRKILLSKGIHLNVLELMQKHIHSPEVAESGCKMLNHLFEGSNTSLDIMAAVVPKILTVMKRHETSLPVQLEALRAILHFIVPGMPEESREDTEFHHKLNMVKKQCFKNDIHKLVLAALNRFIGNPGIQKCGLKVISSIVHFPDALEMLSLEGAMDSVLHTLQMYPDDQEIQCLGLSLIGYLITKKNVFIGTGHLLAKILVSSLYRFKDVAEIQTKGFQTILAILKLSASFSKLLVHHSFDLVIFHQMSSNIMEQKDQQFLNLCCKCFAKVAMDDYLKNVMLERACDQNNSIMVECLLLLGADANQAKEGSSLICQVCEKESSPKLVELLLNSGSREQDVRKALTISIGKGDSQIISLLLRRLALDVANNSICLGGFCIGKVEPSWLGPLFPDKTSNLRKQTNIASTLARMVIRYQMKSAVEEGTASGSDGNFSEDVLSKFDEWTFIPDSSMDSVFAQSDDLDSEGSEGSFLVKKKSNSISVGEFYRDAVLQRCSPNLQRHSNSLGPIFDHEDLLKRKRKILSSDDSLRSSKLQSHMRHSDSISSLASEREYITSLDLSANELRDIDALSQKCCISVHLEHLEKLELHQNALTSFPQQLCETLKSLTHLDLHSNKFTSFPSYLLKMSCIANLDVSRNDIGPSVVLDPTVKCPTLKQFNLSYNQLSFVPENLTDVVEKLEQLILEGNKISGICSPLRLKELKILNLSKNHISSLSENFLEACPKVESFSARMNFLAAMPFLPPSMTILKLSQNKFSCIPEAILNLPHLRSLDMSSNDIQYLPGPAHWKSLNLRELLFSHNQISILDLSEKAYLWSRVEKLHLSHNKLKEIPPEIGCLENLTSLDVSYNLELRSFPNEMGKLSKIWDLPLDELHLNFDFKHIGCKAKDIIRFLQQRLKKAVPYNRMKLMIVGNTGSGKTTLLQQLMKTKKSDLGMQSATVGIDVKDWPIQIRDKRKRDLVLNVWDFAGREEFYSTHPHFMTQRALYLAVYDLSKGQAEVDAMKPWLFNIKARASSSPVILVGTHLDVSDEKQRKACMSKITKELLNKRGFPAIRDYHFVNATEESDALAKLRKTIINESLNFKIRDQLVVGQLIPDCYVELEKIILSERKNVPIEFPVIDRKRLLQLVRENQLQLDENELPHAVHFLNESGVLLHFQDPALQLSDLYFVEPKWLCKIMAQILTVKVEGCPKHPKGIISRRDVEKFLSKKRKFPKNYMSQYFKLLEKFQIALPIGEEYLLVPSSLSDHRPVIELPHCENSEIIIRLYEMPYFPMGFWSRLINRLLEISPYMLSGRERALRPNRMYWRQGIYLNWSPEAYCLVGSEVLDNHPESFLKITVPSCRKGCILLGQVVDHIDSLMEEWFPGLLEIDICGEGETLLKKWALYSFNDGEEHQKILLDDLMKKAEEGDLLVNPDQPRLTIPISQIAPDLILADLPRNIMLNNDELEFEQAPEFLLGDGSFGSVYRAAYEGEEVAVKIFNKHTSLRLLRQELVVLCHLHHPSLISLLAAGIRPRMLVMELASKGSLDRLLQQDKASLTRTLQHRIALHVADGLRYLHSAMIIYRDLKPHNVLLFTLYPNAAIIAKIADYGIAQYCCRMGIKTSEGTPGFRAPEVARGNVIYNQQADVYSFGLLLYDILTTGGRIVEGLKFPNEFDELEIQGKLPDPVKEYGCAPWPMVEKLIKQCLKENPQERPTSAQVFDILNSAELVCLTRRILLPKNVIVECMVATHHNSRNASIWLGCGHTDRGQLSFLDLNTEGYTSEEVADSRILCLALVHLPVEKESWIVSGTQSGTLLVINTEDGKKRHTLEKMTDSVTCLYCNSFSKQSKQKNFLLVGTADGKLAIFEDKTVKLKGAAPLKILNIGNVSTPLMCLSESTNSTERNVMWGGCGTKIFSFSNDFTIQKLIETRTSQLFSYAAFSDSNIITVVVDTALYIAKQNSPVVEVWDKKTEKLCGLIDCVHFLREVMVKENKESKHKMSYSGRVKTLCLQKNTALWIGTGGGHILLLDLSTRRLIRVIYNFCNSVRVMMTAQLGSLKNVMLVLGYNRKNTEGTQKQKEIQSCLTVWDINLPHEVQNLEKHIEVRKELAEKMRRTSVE

Row | IC50 | SMILES
1 | ≤ 10000 nM | Cc1c2c(nn1C1CCC(C(F)(F)F)CC1)OCCC(C)Nc1nc(ncc1Cl)N2 (single isomer, unassigned) [E280, 4-Chloro-4,11-dimethyl-5-[4-(trifluoromethyl)cyclohexyl]-8-oxa-2,5,6,12,16,17-hexaazatricyclo[11.3.1.0^3,7] heptadeca-1(16),3,6,13(17),14-pentaene]
2 | ≤ 10000 nM | CCOC1CNc2nc(ncc2Cl)Nc2c(nn(C3CCOCC3)c2C)OC1 (single isomer, unassigned) [E286, 14-Chloro-10-ethoxy-4-methyl-5-(oxan-4-yl)-8-oxa-2,5,6,12,16,17-hexaazatricyclo[11.3.1.0^3,7]heptadeca-1(16),3,6,13(17),14-pentaene]
3 | ≤ 10000 nM | Cc1c2c(nn1C1CCOCC1)OCCC(C)Nc1nc(ncc1C(F)(F)F)N2 (single isomer, unassigned) [E290, 4,11-Dimethyl-5-(oxan-4-yl)-14-(trifluoromethyl) -8-oxa-2,5,6,12,16,17-hexaazatricyclo[11.3.1.0^3,7]heptadeca-1(16),3,6,13(17),14-pentaene]
4 | ≤ 10000 nM | Cc1c2c(nn1C1CCOCC1)OCCC(C1CC1)Nc1nc(ncc1Cl)N2 (single isomer, unassigned) [E292, 14-Chloro-11-cyclopropyl-4-methyl-5-(oxan-4-yl)-8-oxa-2,5,6,12,16,17-hexaazatricyclo[11.3.1.0^3,7]heptadeca-1(16),3,6,13(17),14-pentaene]
5 | ≤ 10000 nM | Cc1c2c(nn1C1COCCC1(F)F)OCCCNc1nc(ncc1Cl)N2 (single isomer, unassigned) [E303, 14-Chloro-5-(4,4-difluorooxan-3-yl)-4-methyl-8-oxa-2,5,6,12,16,17-hexaazatricyclo[11.3.1.0^3,7]heptadeca-1(16),3,6,13(17),14-pentaene]
6 | ≤ 100 nM | Cc1c2c(nn1C1COCCC1(F)F)OCC[C@@H](C)Nc1nc(ncc1Cl)N2 (single isomer, unassigned) [E304]
7 | ≤ 100 nM | Cc1c2c(nn1C1CCCOC1)OCC(C)CNc1nc(ncc1Cl)N2 (single isomer, unassigned) [E307, 14-Chloro-4,10-dimethyl-5-(oxan-3-yl)-8-oxa-2,5,6,12,16,17-hexaazatricyclo[11.3.1.0^3,7]heptadeca-1(16),3,6, 13(17),14-pentaene]
8 | ≤ 100 nM | Cc1c2c(nn1C1CCCOC1)OCC(C)CNc1nc(ncc1Cl)N2 (single isomer, unassigned) [E308, 14-Chloro-4,10-dimethyl-5-(oxan-3-yl)-8-oxa-2,5,6,12,16,17-hexaazatricyclo[11.3.1.0^3,7]heptadeca-1(16),3,6, 13(17),14-pentaene]
9 | ≤ 100 nM | Cc1c2c(nn1C1CCCOC1)OCC(C)CNc1nc(ncc1Cl)N2 (single isomer, unassigned) [E309, 14-Chloro-4,10-dimethyl-5-(oxan-3-yl)-8-oxa-2,5,6,12,16,17-hexaazatricyclo[11.3.1.0^3,7]heptadeca-1(16),3,6, 13(17),14-pentaene]
10 | ≤ 10000 nM | Cc1c2c(nn1C1CC(N3CCC(F)(F)C3)C1)OCCC(C)Nc1nc(ncc1Cl)N2 (single isomer, unassigned) [E315, 14-Chloro-5-[3-(3,3-difluoropyrrolidin-1-yl)cyclobutyl]-4,11-dimethyl-8-oxa-2,5,6,12,16,17-hexaazatricyclo [11.3.1.0^3,7]-heptadeca-1(16),3,6,13(17),14-pentaene]
11 | ≤ 100 nM | Cc1c2c(nn1C1CC(N3CCC(F)(F)C3)C1)OCCC(C)Nc1nc(ncc1Cl)N2 (single isomer, unassigned) [E316, 14-Chloro-5-[3-(3,3-difluoropyrrolidin-1-yl)cyclobutyl]-4,11-dimethyl-8-oxa-2,5,6,12,16,17-hexaazatricyclo [11.3.1.0^3,7]-heptadeca-1(16),3,6,13(17),14-pentaene]
12 | ≤ 10000 nM | CCC1CCOc2nn(C3COC3)c(C)c2Nc2ncc(Cl)c(n2)N1 (single isomer, unassigned) [E319, 14-Chloro-11-ethyl-4-methyl-5-(oxetan-3-yl)-8-oxa-2,5,6,12,16,17-hexaazatricyclo[11.3.1.0^3,7]heptadeca-1(16), 3,6,13(17),14-pentaene]
13 | ≤ 100 nM | CCC1CCOc2nn(C3COC3)c(C)c2Nc2ncc(Cl)c(n2)N1 (single isomer, unassigned) [E320, 14-Chloro-11-ethyl-4-methyl-5-(oxetan-3-yl)-8-oxa-2,5,6,12,16,17-hexaazatricyclo[11.3.1.0^3,7]heptadeca-1(16), 3,6,13(17),14-pentaene]
14 | ≤ 100 nM | COCC1CCOc2nn(C3CCOCC3F)c(C)c2Nc2ncc(Cl)c(n2)N1 (single isomer, unassigned) [E352, 14-Chloro-5-(3-fluorooxan-4-yl)-11-(methoxymethyl)-4-methyl-8-oxa-2,5,6,12,16,17-hexaazatricyclo [11.3. 1.0^3,7]heptadeca-1(16),3,6,13(17),14-pentaene]
15 | ≤ 100 nM | COCC1CCOc2nn(C3CCOCC3F)c(C)c2Nc2ncc(Cl)c(n2)N1 (single isomer, unassigned) [E353, 14-Chloro-5-(3-fluorooxan-4-yl)-11-(methoxymethyl)-4-methyl-8-oxa-2,5,6,12,16,17-hexaazatricyclo [11.3. 1.0^3,7]heptadeca-1(16),3,6,13(17),14-pentaene]
16 | ≤ 100 nM | COCC1CCOc2nn(C3CCOCC3F)c(C)c2Nc2ncc(Cl)c(n2)N1 (single isomer, unassigned) [E354, 14-Chloro-5-(3-fluorooxan-4-yl)-11-(methoxymethyl)-4-methyl-8-oxa-2,5,6,12,16,17-hexaazatricyclo [11.3. 1.0^3,7]heptadeca-1(16),3,6,13(17),14-pentaene]

Row | IC50 | SMILES
17 | ≤ 100 nM | COCC1CCOc2nn(C3CCOCC3F)c(C)c2Nc2ncc(Cl)c(n2)N1 (single isomer, unassigned) [E355, 14-Chloro-5-(3-fluorooxan-4-yl)-11-(methoxymethyl)-4-methyl-8-oxa-2,5,6,12,16,17-hexaazatricyclo [11.3. 1.0^3,7]heptadeca-1(16),3,6,13(17),14-pentaene]
18 | ≤ 10000 nM | COCC1CCOc2nn(C3CCOCC3F)c(C)c2Nc2ncc(Cl)c(n2)N1 (single isomer, unassigned) [E356, 14-Chloro-5-(3-fluorooxan-4-yl)-11-(methoxymethyl)-4-methyl-8-oxa-2,5,6,12,16,17-hexaazatricyclo [11.3. 1.0^3,7]heptadeca-1(16),3,6,13(17),14-pentaene]
19 | ≤ 100 nM | COCC1CCOc2nn(C3CCOCC3F)c(C)c2Nc2ncc(Cl)c(n2)N1 (single isomer, unassigned) [E357, 14-Chloro-5-(3-fluorooxan-4-yl)-11-(methoxymethyl)-4-methyl-8-oxa-2,5,6,12,16,17-hexaazatricyclo [11.3. 1.0^3,7]heptadeca-1(16),3,6,13(17),14-pentaene]
20 | ≤ 100 nM | COCC1CCOc2nn(C3CCOCC3F)c(C)c2Nc2ncc(Cl)c(n2)N1 (single isomer, unassigned) [E358, 14-Chloro-5-(3-fluorooxan-4-yl)-11-(methoxymethyl)-4-methyl-8-oxa-2,5,6,12,16,17-hexaazatricyclo [11.3. 1.0^3,7]heptadeca-1(16),3,6,13(17),14-pentaene]
21 | ≤ 10000 nM | Cc1c2c(nn1C1CCC(N3CCOCC3)C1)OCCCNc1nc(ncc1Cl)N2 (single isomer, unassigned) [E370, 14-Chloro-4-methyl-5-[3-(morpholin-4-yl)cyclopentyl]-8-oxa-2,5,6,12,16,17-hexaazatricyclo[11.3.1.0^3,7] heptadeca-1(16),3,6,13(17),14-pentaene]
22 | ≤ 100 nM | Cc1c2c(nn1C1CN(C3COC3)CCC1F)OCC[C@@H](C)Nc1nc(ncc1Cl)N2 (single isomer, unassigned) [E404]
23 | ≤ 100 nM | Cc1c2c(nn1C1CCN(C3COC3)CC1(F)F)OCCCNc1nc(ncc1Cl)N2 (single isomer, unassigned) [E405, 14-Chloro-5-[3,3-difluoro-1-(oxetan-3-yl)piperidin-4-yl]-4-methyl-8-oxa-2,5,6,12,16,17-hexaazatricyclo[11.3.1.0^3,7]heptadeca-1(16),3,6,13(17),14-pentaene]
24 | ≤ 100 nM | Cc1c2c(nn1C1CCOCC1(F)F)OCCCNc1nc(ncc1Cl)N2 (single isomer, unassigned) [E414]
25 | ≤ 100 nM | Cc1c2c(nn1C1CCOCC1(C)C)OCC[C@@H](C)Nc1nc(ncc1Cl)N2 (single isomer, unassigned) [E423]
26 | ≤ 100 nM | C[C@@H]1CCOc2nn(C3CCN(C4COC4)CC3(F)F)c(Cl)c2Nc2ncc(Cl)c(n2)N1 (single isomer, unassigned) [E445]
27 | ≤ 10000 nM | Cc1c2c(nn1C1CCOCC1)OCC[C@H](C)Nc1nc(ncc1Cl)N2 [E7, (11S)-14-Chloro-4,11-dimethyl-5-(oxan-4-yl)-8-oxa-2,5,6,12,16,17-hexaazatricyclo [11.3.1.0^3,7]heptadeca-1(16),3,6,13(17),14-pentaene]
28 | ≤ 10000 nM | Clc1cnc2nc1NCCCOc1nn(C3CCCOC3)cc1N2 (stereo not shown) [E9, 14-Chloro-5-(oxan-3-yl)-8-oxa-2,5,6,12,16,17-hexaazatricyclo[11.3.1.0^3,7]heptadeca-1(16),3,6,13(17),14-pentaene]
29 | ≤ 10000 nM | Cc1c2c(nn1C1CCOCC1)OCCNc1nc(ncc1Cl)N2 [E138, 13-Chloro-4-methyl-5-(oxan-4-yl)-8-oxa-2,5,6,11,15,16-hexaaza tricyclo[10.3.1.0^3,7]hexadeca-1(15),3,6,12(16),13-pentaene]
30 | ≤ 10000 nM | Clc1cnc2nc1NCCCOc1nn(C3CCOCC3)c(C3CC3)c1N2 [E147, 14-Chloro-4-cyclopropyl-5-(oxan-4-yl)-8-oxa-2,5,6,12,16,17-hexaazatricyclo[11.3.1.0^3,7]heptadeca-1(16),3,6,13(17),14-pentaene]
31 | ≤ 10000 nM | Cc1c2c(nn1C(C)(C)C(N)=O)OCCCNc1nc(ncc1Cl)N2 [E190, 2-{14-Chloro-4-methyl-8-oxa-2,5,6,12,16,17-hexaazatricyclo [11.3.1.0^3,7]heptadeca-1(16),3,6,13(17),14-pentaen-5-yl}-2-methylpropanamide]
